The source of these data is the NIST ThermoML archive (doi:10.1016/j.jct.2011.02.012).

Numbers after ± are expanded uncertainties.

A short description of this series: activity coefficient (dimensionless); of the first substance listed, at infinite dilution; xn = mol fraction of the nth substance listed. The conditions noted are these: Liquid, Chromatography, x1 = 0.

As to `Cc1ccccc1C` [1,2-dimethylbenzene] + CCn1cc[n+](C)c1.N#C[B-](C#N)(C#N)C#N, the activity coefficient by setting is: (298.15 K) 2.17 ± 0.15; (308.15 K) 2.18 ± 0.15; (318.15 K) 2.2 ± 0.15; (328.15 K) 2.21 ± 0.15; (338.15 K) 2.22 ± 0.15; (348.15 K) 2.24 ± 0.15. Also, the activity coefficient (358.15 K) came to 2.25 ± 0.15.
As for `Cc1cccc(C)c1` [1,3-dimethylbenzene] + CCn1cc[n+](C)c1.N#C[B-](C#N)(C#N)C#N, the activity coefficient by setting is: (308.15 K) 2.56 ± 0.17; (318.15 K) 2.58 ± 0.18; (328.15 K) 2.6 ± 0.18; (338.15 K) 2.61 ± 0.18; (348.15 K) 2.63 ± 0.18; (358.15 K) 2.64 ± 0.18.
As for `Cc1ccc(C)cc1` [1,4-dimethylbenzene] + CCn1cc[n+](C)c1.N#C[B-](C#N)(C#N)C#N, the activity coefficient reads like this: (318.15 K) 2.45 ± 0.17; (328.15 K) 2.48 ± 0.17; (338.15 K) 2.5 ± 0.17; (348.15 K) 2.52 ± 0.17; (358.15 K) 2.54 ± 0.17.
With `C=CCCCCC` [1-heptene] + CCn1cc[n+](C)c1.N#C[B-](C#N)(C#N)C#N, the activity coefficient (298.15 K) came to 22 ± 1.5; the activity coefficient (308.15 K) amounted to 20.4 ± 1.4; the activity coefficient (318.15 K) is 19.3 ± 1.3; the activity coefficient (328.15 K) stood at 18.3 ± 1.3; the activity coefficient (338.15 K) was 17.3 ± 1.2; the activity coefficient (348.15 K) amounted to 16.6 ± 1.1. Besides, the activity coefficient (358.15 K) was determined as 15.7 ± 1.1.
For the compound `C#CCCCCC` [1-heptyne] + CCn1cc[n+](C)c1.N#C[B-](C#N)(C#N)C#N, the activity coefficient was found to be 5.74 ± 0.39 (298.15 K); 5.66 ± 0.39 (308.15 K); 5.58 ± 0.38 (318.15 K); 5.51 ± 0.38 (328.15 K); 5.45 ± 0.37 (338.15 K); 5.39 ± 0.37 (348.15 K). Besides, the activity coefficient (358.15 K) amounted to 5.33 ± 0.36.
On to `C#CCCCC` [1-hexyne] + CCn1cc[n+](C)c1.N#C[B-](C#N)(C#N)C#N, for which the activity coefficient runs as follows: (298.15 K) 3.77 ± 0.26; (308.15 K) 3.76 ± 0.26; (318.15 K) 3.76 ± 0.26; (328.15 K) 3.75 ± 0.26; (338.15 K) 3.74 ± 0.25; (348.15 K) 3.74 ± 0.25. In addition, the activity coefficient (358.15 K) turned out to be 3.73 ± 0.25.
As to `C#CCCCCCC` [1-octyne] + CCn1cc[n+](C)c1.N#C[B-](C#N)(C#N)C#N, the activity coefficient (298.15 K) worked out at 8.66 ± 0.59; the activity coefficient (308.15 K) turned out to be 8.48 ± 0.58; the activity coefficient (318.15 K) came to 8.31 ± 0.57; the activity coefficient (328.15 K) was 8.15 ± 0.56; the activity coefficient (338.15 K) came out at 7.99 ± 0.54; the activity coefficient (348.15 K) came to 7.86 ± 0.54. Where the note is “358.15 K”, the activity coefficient came to 7.73 ± 0.53.
Turning to `C=CCCC` [1-pentene] + CCn1cc[n+](C)c1.N#C[B-](C#N)(C#N)C#N, the activity coefficient worked out at 9.24 ± 0.63 (298.15 K); 8.83 ± 0.6 (308.15 K); 8.56 ± 0.58 (318.15 K); 8.24 ± 0.56 (328.15 K); 7.97 ± 0.54 (338.15 K); 7.71 ± 0.53 (348.15 K). The activity coefficient (358.15 K) was found to be 7.52 ± 0.51.
In the case of `CC(C)CC(C)(C)C` [2,2,4-trimethylpentane] + CCn1cc[n+](C)c1.N#C[B-](C#N)(C#N)C#N, the activity coefficient (298.15 K) was 60.3 ± 4.1; the activity coefficient (308.15 K) amounted to 54.3 ± 3.7; the activity coefficient (318.15 K) was determined as 50.4 ± 3.5; the activity coefficient (328.15 K) stood at 46.4 ± 3.2; the activity coefficient (338.15 K) is 42.3 ± 2.9; the activity coefficient (348.15 K) was 39.5 ± 2.7. For the same compound, for the setting “358.15 K”, the activity coefficient stood at 36.7 ± 2.5.
On to `CCCCC(C)=O` [2-hexanone] + CCn1cc[n+](C)c1.N#C[B-](C#N)(C#N)C#N, for which the activity coefficient (308.15 K) was determined as 1.11 ± 0.07; the activity coefficient (318.15 K) was found to be 1.12 ± 0.07; the activity coefficient (328.15 K) is 1.14 ± 0.07; the activity coefficient (338.15 K) came out at 1.16 ± 0.07; the activity coefficient (348.15 K) was found to be 1.17 ± 0.07; the activity coefficient (358.15 K) is 1.09 ± 0.07.
For `CCC(C)(C)OC` [2-methoxy-2-methylbutane] + CCn1cc[n+](C)c1.N#C[B-](C#N)(C#N)C#N, the activity coefficient reads like this: (298.15 K) 4.15 ± 0.28; (308.15 K) 4.19 ± 0.29; (318.15 K) 4.22 ± 0.29; (328.15 K) 4.25 ± 0.29; (338.15 K) 4.28 ± 0.29; (348.15 K) 4.3 ± 0.29. Also, under “358.15 K”, the activity coefficient is 4.32 ± 0.29.
With `COC(C)(C)C` [2-methoxy-2-methylpropane] + CCn1cc[n+](C)c1.N#C[B-](C#N)(C#N)C#N, the activity coefficient is, setting by setting: (298.15 K) 2.82 ± 0.19; (308.15 K) 2.86 ± 0.19; (318.15 K) 2.9 ± 0.2; (328.15 K) 2.94 ± 0.2; (338.15 K) 2.97 ± 0.2; (348.15 K) 3.01 ± 0.2. In addition, the activity coefficient (358.15 K) was 3.04 ± 0.21.
For `CCCC(=O)CC` [3-hexanone] + CCn1cc[n+](C)c1.N#C[B-](C#N)(C#N)C#N, the activity coefficient runs as follows: (308.15 K) 1.2 ± 0.08; (318.15 K) 1.22 ± 0.08; (328.15 K) 1.24 ± 0.08; (338.15 K) 1.25 ± 0.08; (348.15 K) 1.28 ± 0.08; (358.15 K) 1.17 ± 0.07.
Take `CC(C)=O` [acetone] + CCn1cc[n+](C)c1.N#C[B-](C#N)(C#N)C#N: the activity coefficient runs as follows: (308.15 K) 0.443 ± 0.036; (318.15 K) 0.454 ± 0.036; (328.15 K) 0.466 ± 0.036; (338.15 K) 0.475 ± 0.037; (348.15 K) 0.488 ± 0.037; (358.15 K) 0.43 ± 0.035.
With `c1ccccc1` [benzene] + CCn1cc[n+](C)c1.N#C[B-](C#N)(C#N)C#N, the activity coefficient by setting is: (298.15 K) 1.13 ± 0.07; (308.15 K) 1.15 ± 0.07; (318.15 K) 1.17 ± 0.07; (328.15 K) 1.18 ± 0.08; (338.15 K) 1.19 ± 0.08; (348.15 K) 1.2 ± 0.08. Besides, under “358.15 K”, the activity coefficient is 1.21 ± 0.08.
On to `CCCCO` [butan-1-ol] + CCn1cc[n+](C)c1.N#C[B-](C#N)(C#N)C#N, for which the activity coefficient was 2.72 ± 0.19 (298.15 K); 2.41 ± 0.16 (308.15 K); 2.16 ± 0.15 (318.15 K); 1.95 ± 0.13 (328.15 K); 1.79 ± 0.12 (338.15 K); 1.65 ± 0.11 (348.15 K). Further, the activity coefficient (358.15 K) came to 1.53 ± 0.1.
Regarding `C1CCCCCC1` [cycloheptane] + CCn1cc[n+](C)c1.N#C[B-](C#N)(C#N)C#N, the activity coefficient reads like this: (298.15 K) 21.9 ± 1.5; (308.15 K) 19.9 ± 1.4; (318.15 K) 18.6 ± 1.3; (328.15 K) 17 ± 1.2; (338.15 K) 15.8 ± 1.1; (348.15 K) 14.8 ± 1. Moreover, the activity coefficient (358.15 K) is 13.9 ± 1.
Consider `C1CCCCC1` [cyclohexane] + CCn1cc[n+](C)c1.N#C[B-](C#N)(C#N)C#N, for which the activity coefficient (298.15 K) stood at 16.7 ± 1.1; the activity coefficient (308.15 K) was 15.2 ± 1; the activity coefficient (318.15 K) worked out at 14.3 ± 1; the activity coefficient (328.15 K) amounted to 13.2 ± 0.9; the activity coefficient (338.15 K) is 12.3 ± 0.8; the activity coefficient (348.15 K) was 11.6 ± 0.8. The activity coefficient (358.15 K) was 10.9 ± 0.7.
With `C1=CCCCC1` [cyclohexene] + CCn1cc[n+](C)c1.N#C[B-](C#N)(C#N)C#N, the activity coefficient (298.15 K) was 7.25 ± 0.49; the activity coefficient (308.15 K) was 6.92 ± 0.47; the activity coefficient (318.15 K) amounted to 6.67 ± 0.45; the activity coefficient (328.15 K) was 6.44 ± 0.44; the activity coefficient (338.15 K) was 6.17 ± 0.42; the activity coefficient (348.15 K) was found to be 6.01 ± 0.41. For the same compound, the activity coefficient (358.15 K) was 5.81 ± 0.4.
Take `C1CCCCCCC1` [cyclooctane] + CCn1cc[n+](C)c1.N#C[B-](C#N)(C#N)C#N: the activity coefficient stood at 29.7 ± 2 (298.15 K); 26.6 ± 1.8 (308.15 K); 24.7 ± 1.7 (318.15 K); 22.5 ± 1.5 (328.15 K); 20.8 ± 1.4 (338.15 K); 19.2 ± 1.3 (348.15 K). In addition, for the setting “358.15 K”, the activity coefficient was determined as 17.9 ± 1.2.
As to `C1CCCC1` [cyclopentane] + CCn1cc[n+](C)c1.N#C[B-](C#N)(C#N)C#N, the activity coefficient by setting is: (298.15 K) 10.7 ± 0.7; (308.15 K) 9.9 ± 0.7; (318.15 K) 9.5 ± 0.7; (328.15 K) 8.8 ± 0.6; (338.15 K) 8.4 ± 0.6; (348.15 K) 8 ± 0.5. Also, the activity coefficient (358.15 K) worked out at 7.6 ± 0.5.
For `CCCCCCCCCC` [decane] + CCn1cc[n+](C)c1.N#C[B-](C#N)(C#N)C#N, the activity coefficient runs as follows: (298.15 K) 203 ± 14; (308.15 K) 177 ± 12; (318.15 K) 156 ± 11; (328.15 K) 137 ± 9; (338.15 K) 122 ± 8; (348.15 K) 108 ± 7. Besides, the activity coefficient (358.15 K) amounted to 96.7 ± 6.6.
For `CCOCC` [diethyl ether] + CCn1cc[n+](C)c1.N#C[B-](C#N)(C#N)C#N, the activity coefficient worked out at 2.71 ± 0.18 (298.15 K); 2.72 ± 0.19 (308.15 K); 2.73 ± 0.19 (318.15 K); 2.74 ± 0.19 (328.15 K); 2.75 ± 0.19 (338.15 K); 2.76 ± 0.19 (348.15 K). For the same compound, for the setting “358.15 K”, the activity coefficient worked out at 2.77 ± 0.19.
As to `CCCOCCC` [dipropyl ether] + CCn1cc[n+](C)c1.N#C[B-](C#N)(C#N)C#N, the activity coefficient amounted to 8.54 ± 0.58 (298.15 K); 8.32 ± 0.57 (308.15 K); 8.07 ± 0.55 (318.15 K); 7.79 ± 0.53 (328.15 K); 7.6 ± 0.5 (338.15 K); 7.43 ± 0.51 (348.15 K). The activity coefficient (358.15 K) is 7.24 ± 0.49.
Regarding `CCO` [ethanol] + CCn1cc[n+](C)c1.N#C[B-](C#N)(C#N)C#N, the activity coefficient runs as follows: (298.15 K) 1.58 ± 0.1; (308.15 K) 1.43 ± 0.09; (318.15 K) 1.32 ± 0.09; (328.15 K) 1.21 ± 0.08; (338.15 K) 1.13 ± 0.07; (348.15 K) 1.05 ± 0.07. Moreover, the activity coefficient (358.15 K) was found to be 0.986 ± 0.062.
